Assay [1] has as its target T1, human recombinant serotonin (5-Hydroxytryptamine) 5-HT6 receptor (Homo sapiens, UniProt P50406).
T1 construct: expressed in transfected cells; host or cells: human HeLa cells
The assay is described as follows: Serotonin 5-HT6 radioligand binding ([3H]LSD). Particulars: compound at 1 μM; HeLa cells; read-out: Serotonin (1 μM) 5-HT6, percent inhibition of specific binding. As for the experimental part: To evaluate in radioligand binding assays the activity of compounds of the invention, human recombinant serotonin (5-Hydroxytryptamine) 5-HT6 receptor expressed in human HeLa cells (Monsma, F. J. Jr. et al., Mol. Pharmacol. 43:320, 1993) in a modified Tris-HCl buffer (50 mM Tris-HCl, pH 7.4, 150 mM NaCl, 2 mM Ascorbic Acid, 0.001% BSA) was used. Compounds of the invention were incubated with 1.5 nM [3H]Lysergic acid diethylamide (LSD) for 120 minutes at 37° C. Non-specific binding was estimated in the presence of 5 μM Serotonin (5-HT). Receptor proteins were filtered and washed, the filters were then counted to determine [3H]LSD specifically bound. Compounds were screened at 1 μM or lower, using 1% DMSO as vehicle. Biochemical assay results are presented as the percent inhibition of specific binding in Table 7.

The target of assay [2] is T2, human recombinant dopamine D2L receptor (Homo sapiens, UniProt P14416).
T2 construct: expressed in transfected cells; host or cells: CHO cells
T2 sequence (P14416 whole entry): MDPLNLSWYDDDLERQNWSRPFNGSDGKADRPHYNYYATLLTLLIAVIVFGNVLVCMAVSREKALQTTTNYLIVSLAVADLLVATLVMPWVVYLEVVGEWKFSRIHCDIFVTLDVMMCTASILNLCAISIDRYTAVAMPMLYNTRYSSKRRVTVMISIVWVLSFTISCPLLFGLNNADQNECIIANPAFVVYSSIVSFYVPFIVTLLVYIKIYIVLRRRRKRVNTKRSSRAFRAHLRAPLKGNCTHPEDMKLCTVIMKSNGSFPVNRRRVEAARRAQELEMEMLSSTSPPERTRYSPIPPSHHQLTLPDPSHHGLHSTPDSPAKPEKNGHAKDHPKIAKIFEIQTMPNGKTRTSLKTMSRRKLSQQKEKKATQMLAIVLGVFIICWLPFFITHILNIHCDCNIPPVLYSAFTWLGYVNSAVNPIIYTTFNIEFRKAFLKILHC
Kind of assay: Dopamine D2L radioligand binding ([3H]Spiperone). Particulars: compound at 1 μM; CHO cells; read-out: Dopamine (1 μM) D2L, percent inhibition of specific binding. How it is done: To evaluate in radioligand binding assays the activity of compounds of the invention, human recombinant dopamine D2L receptor expressed in Chinese hamster ovary (CHO) cells (Grandy, D. K. et al. Proc. Natl. Acad. Sci. USA. 86:9762, 1989; Hayes, G. et al., Mol. Endocrinol. 6:920, 1992) in a modified Tris-HCl buffer (50 mM Tris-HCl, pH 7.4, 1.4 mM Ascorbic Acid, 0.001% BSA, 150 mM NaCl) was used. Compounds of the invention were incubated with 0.16 nM [^3H]Spiperone for 120 minutes at 25° C. Non-specific binding was estimated in the presence of 10 μM Haloperidol. Receptor proteins were filtered and washed, the filters were then counted to determine [^3H]Spiperone specifically bound. Compounds were screened at 1 μM or lower, using 1% DMSO as vehicle. Biochemical assay results are presented as the percent inhibition of specific binding in Table 6.

Assay [3] concerns the target T3, human recombinant adrenergic α2A receptor (Homo sapiens, UniProt P08913).
T3 construct: expressed in transfected cells; host or cells: insect Sf9 cells
T3 sequence (P08913 1-465): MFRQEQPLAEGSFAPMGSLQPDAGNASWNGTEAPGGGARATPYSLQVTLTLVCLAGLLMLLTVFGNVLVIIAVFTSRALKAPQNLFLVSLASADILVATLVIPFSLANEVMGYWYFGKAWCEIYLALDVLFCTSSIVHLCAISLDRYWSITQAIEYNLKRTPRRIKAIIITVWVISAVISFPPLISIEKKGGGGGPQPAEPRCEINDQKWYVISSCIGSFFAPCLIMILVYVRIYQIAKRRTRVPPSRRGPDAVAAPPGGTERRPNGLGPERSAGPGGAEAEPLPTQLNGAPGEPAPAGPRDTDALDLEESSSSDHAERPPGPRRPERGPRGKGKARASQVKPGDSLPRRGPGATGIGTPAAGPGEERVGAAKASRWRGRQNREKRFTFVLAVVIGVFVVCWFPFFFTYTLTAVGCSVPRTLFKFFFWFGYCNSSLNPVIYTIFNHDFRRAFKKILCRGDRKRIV
The assay is described as follows: Adrenergic α2A radioligand binding ([3H]MK-912). Particulars: compound at 1 μM; insect Sf9 cells; read-out: Adrenergic (1 μM) α2A, percent inhibition of specific binding. How it is done: To evaluate in radioligand binding assays the activity of compounds of the invention, human recombinant adrenergic α2A receptor expressed in insect Sf9 cells (Uhlen S et al. J Pharmacol Exp Ther. 271:1558, 1994) in a modified Tris-HCl buffer (50 mM Tris-HCl, pH 7.4, 12.5 mM MgCl2, 2 mM EDTA) was used. Compounds of invention were incubated with 1 nM [^3H]MK-912 for 60 minutes at 25° C. MK912 is (2S-trans)-1,3,4,5′,6,6′,7,12b-octahydro-1′,3′-dimethyl-spiro[2H-benzofuro[2,3-a]quinolizine-2,4′(1′H)-pyrimidin]-2′(3′H)-one hydrochloride Non-specific binding was estimated in the presence of 10 μM WB-4101 (2-(2,6-Dimethoxyphenoxyethyl)aminomethyl-1,4-benzodioxane hydrochloride). Receptor proteins were filtered and washed, the filters were then counted to determine [^3H]MK-912 specifically bound. Compounds were screened at 1 μM or lower, using 1% DMSO as vehicle. Biochemical assay results are presented as the percent inhibition of specific binding in Table 6.

In assay [4] the target is T4, human recombinant adrenergic α2B receptor (Homo sapiens, UniProt P18089).
T4 construct: expressed in transfected cells; host or cells: CHO-K1 cells
T4 sequence (P18089 1-450): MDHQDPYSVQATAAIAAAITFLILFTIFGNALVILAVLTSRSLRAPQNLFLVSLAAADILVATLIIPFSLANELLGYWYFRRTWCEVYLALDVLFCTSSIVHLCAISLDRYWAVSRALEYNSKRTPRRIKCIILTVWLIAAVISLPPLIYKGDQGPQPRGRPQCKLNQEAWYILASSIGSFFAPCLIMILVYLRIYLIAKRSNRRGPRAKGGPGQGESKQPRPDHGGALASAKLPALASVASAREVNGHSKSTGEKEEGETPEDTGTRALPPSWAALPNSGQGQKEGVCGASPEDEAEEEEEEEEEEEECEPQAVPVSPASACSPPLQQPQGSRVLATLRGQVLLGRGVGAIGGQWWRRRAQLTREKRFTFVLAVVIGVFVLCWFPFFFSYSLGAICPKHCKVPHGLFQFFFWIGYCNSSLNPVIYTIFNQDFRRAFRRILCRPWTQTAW
Kind of assay: Adrenergic α2B radioligand binding ([3H]Rauwolscine). Conditions: compound at 1 μM; CHO-K1 cells; read-out: Adrenergic (1 μM) α2B, percent inhibition of specific binding. How it is done:
To evaluate in radioligand binding assays the activity of compounds of the invention, human recombinant adrenergic α2B receptor expressed in Chinese hamster ovary (CHO-K1) cells (Uhlen S et al. Eur. J. Pharmacol. 343(1):93, 1998) in a modified Tris-HCl buffer (50 mM Tris-HCl, pH 7.4, 12.5 mM MgCl2, 1 mM EDTA, 0.2% BSA) was used. Compounds of the invention were incubated with 2.5 nM [3H]Rauwolscine for 60 minutes at 25° C. Non-specific binding was estimated in the presence of 10 μM Prozosin. Receptor proteins were filtered and washed, the filters were then counted to determine [^3H]Rauwolscine specifically bound. Compounds were screened at 1 μM or lower, using 1% DMSO as vehicle. Biochemical assay results are presented as the percent inhibition of specific binding in Table 6.

This passage reports inhibition results from patent US9115137B2, “2,3,4,5-tetrahydro-1H-pyrido[4,3-B]indole compounds and methods of use thereof” (priority 2008, dated 2015).

T1 sequence (P50406 whole entry): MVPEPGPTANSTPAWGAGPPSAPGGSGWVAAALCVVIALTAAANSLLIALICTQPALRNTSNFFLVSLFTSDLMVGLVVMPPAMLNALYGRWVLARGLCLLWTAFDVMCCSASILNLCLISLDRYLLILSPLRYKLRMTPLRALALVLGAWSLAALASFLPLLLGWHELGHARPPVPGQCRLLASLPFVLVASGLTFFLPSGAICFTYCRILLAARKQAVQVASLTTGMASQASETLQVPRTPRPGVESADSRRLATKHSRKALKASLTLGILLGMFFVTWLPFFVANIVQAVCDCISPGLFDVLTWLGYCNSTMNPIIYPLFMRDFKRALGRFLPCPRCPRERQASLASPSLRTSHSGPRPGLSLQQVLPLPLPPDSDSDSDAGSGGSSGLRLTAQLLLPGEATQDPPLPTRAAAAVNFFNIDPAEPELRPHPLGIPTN

As usually defined, the inhibition is the drop in the measured response relative to a control, in per cent. With `Cc1ccc2c(c1)c1c(n2CCC(=O)NCc2ccccc2)CCN(C)C1` [Compound 59, N-benzyl-3-(1,2,3,4-tetrahydro-2,8-dimethylpyrido[4,3-b]indol-5-yl)propanamide], the inhibition at 1 µM in assay [1] turned out to be 22%; in assay [2] it was 4%; in assay [3], 45%; in assay [4], 96%.

Turning to `Cc1ccc2c(c1)c1c(n2CCC(=O)Nc2ccccc2)CCN(C)C1` [Compound 29], the inhibition at 1 µM in assay [1] was 43%; in assay [2] it was 2%; in assay [3], 78%; in assay [4] it was 79%.

As for `CN1CCc2c(c3cc(Cl)ccc3n2CCC(N)=O)C1` [Compound 67, 3-(8-chloro-1,2,3,4-tetrahydro-2-methylpyrido[4,3-b]indol-5-yl)propanamide], the inhibition at 1 µM in assay [1] is 24%; in assay [2], -1%; in assay [3], 79%; in assay [4] it was 72%.

Take `Cc1ccc2c(c1)c1c(n2C2CCCCC2O)CCN(C)C1` (stereo not drawn) [Compound 73, 2-(1,2,3,4-tetrahydro-2,8-dimethylpyrido[4,3-b]indol-5-yl)cyclohexanol]: the inhibition at 1 µM in assay [1] is 7%; in assay [2], -3%; in assay [3], 11%; in assay [4] it was -2%.

With `CN1CCc2c(c3cc(Cl)ccc3n2CCC(=O)OCc2ccccc2)C1` [Compound 19, benzyl 3-(8-chloro-1,2,3,4-tetrahydro-2-methylpyrido[4,3-b]indol-5-yl)propanoate], the inhibition at 1 µM was 100% in assay [1], 31% in assay [2], 86% in assay [3] and 106% in assay [4].

As to `CN1CCc2c(c3cc(Cl)ccc3n2CCCO)C1` [CD87, 3-(8-chloro-2-methyl-3,4-dihydro-1H-pyrido[4,3-b]indol-5(2H)-yl)propan-1-ol], the inhibition at 1 µM in assay [1] was 35%; in assay [2], 10%; in assay [3] it was 79%; in assay [4], 103%.

Take `Cc1ccc2c(c1)c1c(n2CCNC(=O)C2CCNCC2)CCN(C)C1` [Compound 65, N-(2-(1,2,3,4-tetrahydro-2,8-dimethylpyrido[4,3-b]indol-5-yl)ethyl)piperidine-4-carboxamide]: the inhibition at 1 µM is 3% in assay [1], 7% in assay [2], 17% in assay [3] and 12% in assay [4].

`Cc1ccc2c(c1)c1c(n2CCNC(=O)c2ccc(F)cc2)CCN(C)C1` [Compound 66, 4-fluoro-N-(2-(1,2,3,4-tetrahydro-2,8-dimethylpyrido[4,3-b]indol-5-yl)ethyl)benzamide]: the inhibition at 1 µM was 35% in assay [1], -2% in assay [2], 70% in assay [3] and 107% in assay [4].

In the case of `Cc1ccc2c(c1)c1c(n2CCNC(=O)C2CCCNC2)CCN(C)C1` (stereo not drawn) [Compound 9, N-(2-(1,2,3,4-tetrahydro-2,8-dimethylpyrido[4,3-b]indol-5-yl)ethyl)piperidine-3-carboxamide], the inhibition at 1 µM is -5% in assay [1], 2% in assay [2], 20% in assay [3] and 25% in assay [4].

Consider `CN1CCc2c(c3cc(Cl)ccc3n2CC(=O)OC(C)(C)C)C1` [Compound 12, tert-butyl 2-(8-chloro-1,2,3,4-tetrahydro-2-methylpyrido[4,3-b]indol-5-yl)acetate], for which the inhibition at 1 µM in assay [1] was found to be 67%; in assay [2], 23%; in assay [3], 12%; in assay [4] it was 45%.

Consider `Cc1ccc2c(c1)c1c(n2CCC(=O)O)CCN(C)C1` [CD47, 3-(1,2,3,4-tetrahydro-2,8-dimethylpyrido[4,3-b]indol-5-yl)propanoic acid], for which the inhibition at 1 µM in assay [1] amounted to 11%; in assay [2], 4%; in assay [3], 17%; in assay [4], 24%.

As to `CN1CCc2c(c3cc(Cl)ccc3n2CC(=O)OC2CCCC2)C1` [Compound 15], the inhibition at 1 µM in assay [1] was 96%; in assay [2] it was 26%; in assay [3], 67%; in assay [4], 95%.

On to `CN1CCc2c(c3cc(Cl)ccc3n2CCC(=O)O)C1` [CD55, 3-(8-chloro-1,2,3,4-tetrahydro-2-methylpyrido[4,3-b]indol-5-yl)propanoic acid], for which the inhibition at 1 µM in assay [1] is -3%; in assay [2] it was 3%; in assay [3] it was -2%; in assay [4], 10%.

In the case of `CN1CCc2c(c3cc(Cl)ccc3n2CCC(=O)OC2CCCC2)C1` [Compound 21, cyclopentyl 3-(8-chloro-1,2,3,4-tetrahydro-2-methylpyrido[4,3-b]indol-5-yl)propanoate], the inhibition at 1 µM turned out to be 100% in assay [1], 35% in assay [2], 95% in assay [3] and 103% in assay [4].

As to `Cc1ccc2c(c1)c1c(n2CC(N)=O)CCN(C)C1` [Compound 64, 2-(1,2,3,4-tetrahydro-2,8-dimethylpyrido[4,3-b]indol-5-yl)acetamide], the inhibition at 1 µM in assay [1] was found to be 5%; in assay [2], 2%; in assay [3], 9%; in assay [4], 40%.
